Read-outs that look alike come from different tables or passages of the source.
Tested on: Human breast cancer cell line KPL-1 tumor
Format: in vivo, nude mouse

SMILES: COc1cccc2c1C(=O)c1c(O)c3c(c(O)c1C2=O)C[C@@](O)(C(=O)CO)C[C@@H]3O[C@H]1C[C@H](N)[C@H](O)[C@H](C)O1 [adriamycine, adriamycin]
- Tumor volume, Average (Day 0 (grouping)): 97.7 mm3
- Tumor volume, Average (Day 4): 133.6 mm3
- Tumor volume, Average (Day 7): 145.4 mm3
- Tumor volume, Average (Day 11): 257.9 mm3
- Tumor volume, Average (Day 15): 415.2 mm3
- Tumor volume, Average (Day 19): 625.2 mm3
- Tumor volume, Average (Day 21): 852.6 mm3
- T/C (%) at Day 21 (average tumor volume of group / Group I × 100): 63.8%
